Data reported in patent US20160229835A1, “NOVEL PYRIDYLOXYACETYL TETRAHYDROISOQUINOLINE COMPOUNDS USEFUL AS NAMPT INHIBITORS” (ELI LILLY AND COMPANY, priority 2013, published 2016).

System: A2780 Cancer Cells
Experiment: LC-MS Analysis of NAD+ and Carbohydrate Metabolites in A2780 Cancer Cells
Assay type: cell-based
Details: for Metabolite Levels (μM) DHAP / Metabolite Levels (μM) FBP / Metabolite Levels (μM) FP / Metabolite Levels (μM) NAD / Metabolite Levels (μM) SP: A2780 cells, 24 hours
Procedure: The purpose of this assay is to measure effects of NAMPT inhibitors on NAD^+ formation in cancer cells. LC-MS analysis of NAD^+ metabolites: nicotinamide mononucleotide (NMN), NAD^+, reduced nicotinamide adenine dinucleotide (NADH), and nicotinamide adenine dinucleotide phosphate (NADP) is performed on an HPLC system coupled to a Thermo Quantum Ultra triple quadrupole mass spectrometer operated in positive heated electrospray mode with selected reaction monitoring detection. For cell extracts, 50 μL of extract and 10 μL of 10 μM internal standard (IS) solution is transferred to a 96-well plate, dried under nitrogen and reconstituted in 50 μL of water. For tissue extracts, 20 μL of extract and 10 μL of IS solution are dried and reconstituted in 50 μL water. The IS solution contains 10 μM nicotinamide-d4 (C/D/N Isotopes), nicotinic acid-d4 (C/D/N Isotopes), nicotinamide mononucleotide-d4 (prepared by custom synthesis) and nicotinamide 1,N^6-ethenoadenine dinucleotide in methanol. The metabolites are separated on a Waters XBRIDGE™ Amide (2.1×50 mm, 3 μm) with an injection volume of 10 μL and a flow rate of 1 mL/minute using 10 mM ammonium acetate in 95% acetonitrile for mobile phase A and 10 mM ammonium acetate in 50% acetonitrile for mobile phase B. The gradient is as follows: 0 minutes, 0% B; 2.5 minutes, 70% B; 2.51 minutes, 100% B; 2.8 minutes, 100% B; 2.81 minutes, 0% B, 3.6 minutes, 0% B.
The purpose of this assay is to measure effects of NAMPT inhibitors on the levels of metabolites such as glucose-6-phosphate/fructose-6-phosphate/fructose-1-phosphate collectively as hexose phosphate (HP), fructose-1,6-bisphosphate (FBP), glyceraldehyde-3-phosphate (G3P), dihydroxyacetone phosphate (DHAP), 3-phosphoglycerate (3PG), 2-phosphoglycerate (2PG), phosphoenoylpyruvate (PEP), gluconate-6-phosphate (GN6P), xylulose-5-phosphate (X5P), ribulose-5-phosphate (Ru5P), ribose-5-phosphate (R5P), sedoheptulose-7-phosphate/sedoheptulose-1-phosphate collectively as sedoheptulose phosphate (SP), erythrose-4-phosphate (E4P), and α-ketoglutarate (α-KG) derived from glycolysis, the TCA cycle, and the pentose-phosphate pathway in tumor cells. Cells (50,000/well) are grown as described above in 100 μL of Dulbecco's Modified Eagle Medium supplemented with 10% FBS (dialyzed) and 25 mM glucose, and treated with a compound in triplicates in the presence or absence of 10 μM nicotinic acid. After 24 hours of treatment, the growth medium is removed and 200 μL of 80% methanol is added to each well. After incubation at room temperature for 15 minutes, the resulting extracts are transferred to 96-deep-well plates and washed twice with 200 μL of 80% methanol/water. Then, the plates are heat sealed and stored at −80° C., or dried and reconstituted in 100 μL of 25 μM ethylenediaminetetraacetic acid and injected into LC-MS for analysis.
The LC-MS analysis for carbohydrate metabolites is performed as follows. Chromatographic separations are performed with an HPLC system, which is coupled to an AB Sciex triple quadrupole LC-MS mass spectrometer. Analytes with phosphates are analyzed as follows. The samples are dried and reconstituted in ACN/water solutions and are separated on a Phenomenex Luna amino HPLC column (2.1×30 mm 3 μm) under the conditions as described by Yuan et al. (Nature Protocols, 2012, […], 872-881.). The mass spectrometer is operated under negative ESI MRM mode.

In the case of `CC(C)(O)CS(=O)(=O)Nc1ccc2c(c1)CCN(C(=O)COc1cccnc1)C2` [Example 1, 2-Hydroxy-2-methyl-N-[2-[2-(3-pyridyloxy)acetyl]-3,4-dihydro-1H-isoquinolin-6-yl]propane-1-sulfonamide], the NAD formation (A2780 cancer cells, in words) is reported as “dose-dependent inhibition”, the “glycolytic intermediates (HP, FBP, and DHAP/G3P) before and at the G3P dehydrogenase step” value (A2780 cancer cells, in words) is reported as “dose-dependent increase” and the “intermediates (PEP, and PG) after the G3P dehydrogenase step” value (A2780 cancer cells, in words) is reported as “dose-dependent decrease”. The “key intermediates of the pentose phosphate pathway including SP” value (A2780 cancer cells, in words) was “increased”, the “Metabolite Levels (μM) DHAP” value (compound 0.000508 μM) was 0.6 µM and the “Metabolite Levels (μM) FBP” value (compound 0.000508 μM) was 2.5 µM. For the same molecule, the “Metabolite Levels (μM) FP” value (compound 0.000508 μM) was 1.9 µM, the “Metabolite Levels (μM) NAD” value (compound 0.000508 μM) was 0.331 µM and the “Metabolite Levels (μM) SP” value (compound 0.000508 μM) was 0.3 µM. For the same molecule, the “Metabolite Levels (μM) DHAP” value (compound 0.00152 μM) was 0.6 µM, the “Metabolite Levels (μM) FBP” value (compound 0.00152 μM) was 3.0 µM and the “Metabolite Levels (μM) FP” value (compound 0.00152 μM) was 2.1 µM. The “Metabolite Levels (μM) NAD” value (compound 0.00152 μM) was 0.244 µM, the “Metabolite Levels (μM) SP” value (compound 0.00152 μM) was 0.3 µM and the “Metabolite Levels (μM) DHAP” value (compound 0.00457 μM) was 0.6 µM. The “Metabolite Levels (μM) FBP” value (compound 0.00457 μM) was 4.1 µM, the “Metabolite Levels (μM) FP” value (compound 0.00457 μM) was 2.4 µM and the “Metabolite Levels (μM) NAD” value (compound 0.00457 μM) was 0.089 µM. For the same molecule, the “Metabolite Levels (μM) SP” value (compound 0.00457 μM) was 0.4 µM, the “Metabolite Levels (μM) DHAP” value (compound 0.0137 μM) was 1.0 µM and the “Metabolite Levels (μM) FBP” value (compound 0.0137 μM) was 7.2 µM. For the same molecule, the “Metabolite Levels (μM) FP” value (compound 0.0137 μM) was 3.0 µM, the “Metabolite Levels (μM) NAD” value (compound 0.0137 μM) was 0.027 µM and the “Metabolite Levels (μM) SP” value (compound 0.0137 μM) was 0.5 µM. For the same molecule, the “Metabolite Levels (μM) DHAP” value (compound 0.0412 μM) was 2.0 µM, the “Metabolite Levels (μM) FBP” value (compound 0.0412 μM) was 19.3 µM and the “Metabolite Levels (μM) FP” value (compound 0.0412 μM) was 7.6 µM. The “Metabolite Levels (μM) NAD” value (compound 0.0412 μM) was 0.014 µM, the “Metabolite Levels (μM) SP” value (compound 0.0412 μM) was 1.3 µM and the “Metabolite Levels (μM) DHAP” value (compound 0.123 μM) was 3.8 µM. For the same molecule, the “Metabolite Levels (μM) FBP” value (compound 0.123 μM) was 34.3 µM, the “Metabolite Levels (μM) FP” value (compound 0.123 μM) was 15.1 µM and the “Metabolite Levels (μM) NAD” value (compound 0.123 μM) was 0.008 µM. The “Metabolite Levels (μM) SP” value (compound 0.123 μM) was 2.6 µM, the “Metabolite Levels (μM) DHAP” value (compound 0.37 μM) was 5.0 µM and the “Metabolite Levels (μM) FBP” value (compound 0.37 μM) was 40.9 µM. For the same molecule, the “Metabolite Levels (μM) FP” value (compound 0.37 μM) was 17.2 µM, the “Metabolite Levels (μM) NAD” value (compound 0.37 μM) was 0.010 µM and the “Metabolite Levels (μM) SP” value (compound 0.37 μM) was 3.2 µM. The “Metabolite Levels (μM) DHAP” value (compound 1.111 μM) was 5.4 µM, the “Metabolite Levels (μM) FBP” value (compound 1.111 μM) was 38.6 µM and the “Metabolite Levels (μM) FP” value (compound 1.111 μM) was 18.0 µM. For the same molecule, the “Metabolite Levels (μM) NAD” value (compound 1.111 μM) was 0.008 µM, the “Metabolite Levels (μM) SP” value (compound 1.111 μM) was 3.3 µM and the “Metabolite Levels (μM) DHAP” value (compound 3.333 μM) was 5.2 µM. For the same molecule, the “Metabolite Levels (μM) FBP” value (compound 3.333 μM) was 43.0 µM, the “Metabolite Levels (μM) FP” value (compound 3.333 μM) was 18.8 µM and the “Metabolite Levels (μM) NAD” value (compound 3.333 μM) was 0.007 µM. The “Metabolite Levels (μM) SP” value (compound 3.333 μM) was 3.4 µM, the “Metabolite Levels (μM) DHAP” value (compound 10 μM) was 5.5 µM and the “Metabolite Levels (μM) FBP” value (compound 10 μM) was 39.7 µM. The “Metabolite Levels (μM) FP” value (compound 10 μM) was 17.1 µM, the “Metabolite Levels (μM) NAD” value (compound 10 μM) was 0.008 µM and the “Metabolite Levels (μM) SP” value (compound 10 μM) was 2.8 µM.
